In patent publication US20240043427A1 (Gilead Sciences, Inc., priority 2020, published 2024):

Columns and labels:
CD73 [1] = molecular target: T1, CD73 (Homo sapiens (Human), UniProt P21589); test: MDA-MB-231 Cell Based CD73 Activity Assay (DMEM); settings: MDA-MB-231-GFP cells, DMEM medium with 10% human plasma, 200 uM AMP
CD73 [2] = molecular target: T1, CD73; assay type: biochemical; settings: 1 mM NaH2PO4 in enzyme buffer, CD73 0.3 nM, AMP 15 uM

T1 sequence (P21589 27-574): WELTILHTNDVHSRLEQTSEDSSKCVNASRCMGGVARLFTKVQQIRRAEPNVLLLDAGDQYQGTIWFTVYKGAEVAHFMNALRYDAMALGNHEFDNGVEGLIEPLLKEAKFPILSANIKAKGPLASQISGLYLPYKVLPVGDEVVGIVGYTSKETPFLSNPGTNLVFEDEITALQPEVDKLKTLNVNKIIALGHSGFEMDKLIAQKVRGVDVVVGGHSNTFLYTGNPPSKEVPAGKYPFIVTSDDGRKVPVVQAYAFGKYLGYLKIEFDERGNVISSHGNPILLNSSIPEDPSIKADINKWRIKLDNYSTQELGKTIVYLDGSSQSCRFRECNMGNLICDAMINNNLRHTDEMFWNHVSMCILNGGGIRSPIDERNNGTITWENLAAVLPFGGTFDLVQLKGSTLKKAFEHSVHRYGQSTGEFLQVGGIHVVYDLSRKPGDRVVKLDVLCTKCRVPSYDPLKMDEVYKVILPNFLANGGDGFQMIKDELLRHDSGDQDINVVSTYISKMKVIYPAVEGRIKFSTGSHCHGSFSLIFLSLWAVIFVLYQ

| Structure (SMILES) | EC50 (CD73 [1]) | IC50 (CD73 [2]) |
| --- | --- | --- |
| CC1(C)CN(c2cc(-c3c[nH]c(=O)[nH]c3=O)nn3ccnc23)CC1(F)F [Example 80, 5-[8-(3,3-difluoro-4,4-dimethyl-pyrrolidin-1-yl)imidazo[1,2-b]pyridazin-6-yl]-1H-pyrimidine-2,4-dione] | 6.79 nM | 1.81 nM |
| CC1(C)CN(c2cc(-c3c[nH]c(=O)[nH]c3=O)nn3c(F)cnc23)CC1(F)F [Example 81, 5-[8-(3,3-difluoro-4,4-dimethyl-pyrrolidin-1-yl)-3-fluoro-imidazo[1,2-b]pyridazin-6-yl]-1H-pyrimidine-2,4-dione] | 8.22 nM | 1.93 nM |
| O=c1[nH]cc(-c2cc(N3CC(F)(F)C4(CC4)C3)c3ncc(F)n3n2)c(=O)[nH]1 [Example 82, 5-(8-(7,7-difluoro-5-azaspiro[2.4]heptan-5-yl)-3-fluoroimidazo[1,2-b]pyridazin-6-yl)pyrimidine-2,4(1H,3H)-dione] | 16.4 nM | 3.49 nM |
| O=c1[nH]cc(-c2cc(N3CC(F)(F)C4(CC4)C3)c3nccn3n2)c(=O)[nH]1 [Example 83, 5-(8-(7,7-difluoro-5-azaspiro[2.4]heptan-5-yl)imidazo[1,2-b]pyridazin-6-yl)pyrimidine-2,4(1H,3H)-dione] | 6.65 nM | 1.47 nM |

The next lines start with the values.

| EC50 (CD73 [1]) | IC50 (CD73 [2]) | Structure (SMILES) |
| --- | --- | --- |
| 0.19 nM | 1.69 nM | O=C1N(CC2(F)CC2)c2cc([C@H]3C[C@@H]3c3cc(-c4c[nH]c(=O)[nH]c4=O)nn4ccnc34)ccc2C12CC2 (racemic) [Example 734, 5-(8-((1S,2S)-2-(1′-((1-fluorocyclopropyl)methyl)-2′-oxospiro[cyclopropane-1,3′-indolin]-6′-yl)cyclopropyl)imidazo[1,2-b]pyridazin-6-yl)pyrimidine-2,4(1H,3H)-dione] |
| 0.21 nM | 1.91 nM | O=C1N(CC(F)(F)C(F)F)c2cc([C@H]3C[C@@H]3c3cc(-c4c[nH]c(=O)[nH]c4=O)nn4ccnc34)ccc2C12CC2 (racemic) [Example 736, 5-(8-((1S,2S)-2-(2′-oxo-1′-(2,2,3,3-tetrafluoropropyl)spiro[cyclopropane-1,3′-indolin]-6′-yl)cyclopropyl)imidazo[1,2-b]pyridazin-6-yl)pyrimidine-2,4(1H,3H)-dione] |
| 0.18 nM | 1.79 nM | O=C1N(CC(F)(F)C(F)(F)F)c2cc([C@H]3C[C@@H]3c3cc(-c4c[nH]c(=O)[nH]c4=O)nn4ccnc34)ccc2C12CC2 (racemic) [Example 737, 5-(8-((1S,2S)-2-(2′-oxo-1′-(2,2,3,3,3-pentafluoropropyl)spiro[cyclopropane-1,3′-indolin]-6′-yl)cyclopropyl)imidazo[1,2-b]pyridazin-6-yl)pyrimidine-2,4(1H,3H)-dione] |
| 0.21 nM | 1.74 nM | O=C1N(CC(F)(F)C2CC2)c2cc([C@H]3C[C@@H]3c3cc(-c4c[nH]c(=O)[nH]c4=O)nn4ccnc34)ccc2C12CC2 (racemic) [Example 738, 5-(8-((1S,2S)-2-(1′-(2-cyclopropyl-2,2-difluoroethyl)-2′-oxospiro[cyclopropane-1,3′-indolin]-6′-yl)cyclopropyl)imidazo[1,2-b]pyridazin-6-yl)pyrimidine-2,4(1H,3H)-dione] |
| 0.84 nM | 2.37 nM | O=C1N(CCC(F)(F)F)c2cc([C@H]3C[C@@H]3c3cc(-c4c[nH]c(=O)[nH]c4=O)nn4ccnc34)ccc2C12CC2 (racemic) [Example 746, 5-(8-((1S,2S)-2-(2′-oxo-1′-(3,3,3-trifluoropropyl)spiro[cyclopropane-1,3′-indolin]-6′-yl)cyclopropyl)imidazo[1,2-b]pyridazin-6-yl)pyrimidine-2,4(1H,3H)-dione] |
| 6.56 nM | 1.1 nM | O=c1[nH]cc(-c2cc(N3CC(F)(F)C4(CC4)C3)c3ncnn3n2)c(=O)[nH]1 [Example 84, 5-(8-(7,7-difluoro-5-azaspiro[2.4]heptan-5-yl)-[1,2,4]triazolo[1,5-b]pyridazin-6-yl)pyrimidine-2,4(1H,3H)-dione] |
